The values below are quoted from earlier work in patent publication US12564599B2, “Pharmaceutical composition comprising tetrahydrocannabivarin for the prevention and treatment of overweight” (CepVentures International Corporation, priority 2019, dated 2026).

SMILES strings stand for the structures.

The conditions of the series: over a 6 month or a 1 year period.

Regarding `CC(C)CC(N(C)C)C1(c2ccc(Cl)cc2)CCC1` (stereo not shown) [Sibutramine], the reduces body weight entry is “about 10%”.
